Measurements published in article PMC6199744, “Development of Chemical Proteomics for the Folateome and Analysis of the Kinetoplastid Folateome” (ACS Infectious Diseases, 2018).
Like-named read-outs stand apart in the source and are kept apart here.

Legend:
Assay type in all cases: binding
[1] = molecular target: T1, HeLa cell extract proteins (Homo sapiens, UniProt O43242)
T1 construct: endogenous in cells; host or cells: HeLa cell extract

[2] = molecular target: T2, HeLa cell extract proteins (Homo sapiens, UniProt O95218)
T2 construct: endogenous in cells; host or cells: HeLa cell extract
T2 sequence (O95218 1-330): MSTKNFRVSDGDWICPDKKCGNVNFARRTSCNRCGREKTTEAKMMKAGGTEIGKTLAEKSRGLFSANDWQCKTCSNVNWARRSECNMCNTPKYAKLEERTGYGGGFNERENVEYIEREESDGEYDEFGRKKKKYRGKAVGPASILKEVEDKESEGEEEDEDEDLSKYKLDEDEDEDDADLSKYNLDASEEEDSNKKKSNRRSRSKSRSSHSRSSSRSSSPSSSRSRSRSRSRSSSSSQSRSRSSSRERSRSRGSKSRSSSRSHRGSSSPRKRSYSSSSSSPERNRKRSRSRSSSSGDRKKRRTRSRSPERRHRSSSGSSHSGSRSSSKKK

[3] = molecular target: T3, HeLa cell extract proteins (Homo sapiens, UniProt P04075)
T3 construct: endogenous in cells; host or cells: HeLa cell extract
T3 sequence (P04075 1-364): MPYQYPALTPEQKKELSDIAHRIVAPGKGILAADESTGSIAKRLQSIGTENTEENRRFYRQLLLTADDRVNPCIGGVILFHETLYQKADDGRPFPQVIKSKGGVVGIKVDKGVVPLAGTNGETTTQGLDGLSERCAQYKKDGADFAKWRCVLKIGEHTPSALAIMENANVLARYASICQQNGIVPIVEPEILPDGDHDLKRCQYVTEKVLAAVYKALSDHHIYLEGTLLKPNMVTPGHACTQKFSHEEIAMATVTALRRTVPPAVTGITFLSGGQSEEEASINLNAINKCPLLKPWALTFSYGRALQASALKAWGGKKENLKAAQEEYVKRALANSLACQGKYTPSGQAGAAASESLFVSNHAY

[4] = molecular target: T4, HeLa cell extract proteins (Homo sapiens, UniProt P07900)
T4 construct: endogenous in cells; host or cells: HeLa cell extract

[5] = molecular target: T5, HeLa cell extract proteins (Homo sapiens, UniProt P09497)
T5 construct: endogenous in cells; host or cells: HeLa cell extract
T5 sequence (P09497 1-229): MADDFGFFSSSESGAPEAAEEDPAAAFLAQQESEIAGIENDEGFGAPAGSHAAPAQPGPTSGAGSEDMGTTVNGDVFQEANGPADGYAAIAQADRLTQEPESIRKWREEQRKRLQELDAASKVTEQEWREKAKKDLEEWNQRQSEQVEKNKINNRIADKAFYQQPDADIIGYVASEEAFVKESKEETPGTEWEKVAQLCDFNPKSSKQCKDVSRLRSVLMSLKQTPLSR

[6] = molecular target: T6, HeLa cell extract proteins (Homo sapiens, UniProt P11142)
T6 construct: endogenous in cells; host or cells: HeLa cell extract
T6 sequence (P11142 whole entry): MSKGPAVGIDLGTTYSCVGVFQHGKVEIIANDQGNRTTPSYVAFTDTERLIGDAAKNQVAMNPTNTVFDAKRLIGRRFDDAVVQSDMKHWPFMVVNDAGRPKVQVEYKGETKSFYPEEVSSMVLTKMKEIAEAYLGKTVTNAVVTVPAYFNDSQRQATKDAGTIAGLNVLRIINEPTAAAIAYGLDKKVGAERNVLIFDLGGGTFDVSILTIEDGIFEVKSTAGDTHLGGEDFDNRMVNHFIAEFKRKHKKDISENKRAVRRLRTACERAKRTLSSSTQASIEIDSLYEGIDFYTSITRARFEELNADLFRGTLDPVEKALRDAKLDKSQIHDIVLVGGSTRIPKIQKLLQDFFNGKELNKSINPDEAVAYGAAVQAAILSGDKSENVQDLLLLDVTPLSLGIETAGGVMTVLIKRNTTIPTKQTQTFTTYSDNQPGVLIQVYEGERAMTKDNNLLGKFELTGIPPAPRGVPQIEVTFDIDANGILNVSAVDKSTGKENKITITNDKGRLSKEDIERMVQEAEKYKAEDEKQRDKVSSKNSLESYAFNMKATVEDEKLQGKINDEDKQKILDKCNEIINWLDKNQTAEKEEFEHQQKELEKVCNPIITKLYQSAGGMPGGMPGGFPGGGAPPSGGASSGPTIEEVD

[7] = molecular target: T7, HeLa cell extract proteins (Homo sapiens, UniProt P14678)
T7 construct: endogenous in cells; host or cells: HeLa cell extract

[8] = molecular target: T8, HeLa cell extract proteins (Homo sapiens, UniProt P30153)
T8 construct: endogenous in cells; host or cells: HeLa cell extract
T8 sequence (P30153 whole entry): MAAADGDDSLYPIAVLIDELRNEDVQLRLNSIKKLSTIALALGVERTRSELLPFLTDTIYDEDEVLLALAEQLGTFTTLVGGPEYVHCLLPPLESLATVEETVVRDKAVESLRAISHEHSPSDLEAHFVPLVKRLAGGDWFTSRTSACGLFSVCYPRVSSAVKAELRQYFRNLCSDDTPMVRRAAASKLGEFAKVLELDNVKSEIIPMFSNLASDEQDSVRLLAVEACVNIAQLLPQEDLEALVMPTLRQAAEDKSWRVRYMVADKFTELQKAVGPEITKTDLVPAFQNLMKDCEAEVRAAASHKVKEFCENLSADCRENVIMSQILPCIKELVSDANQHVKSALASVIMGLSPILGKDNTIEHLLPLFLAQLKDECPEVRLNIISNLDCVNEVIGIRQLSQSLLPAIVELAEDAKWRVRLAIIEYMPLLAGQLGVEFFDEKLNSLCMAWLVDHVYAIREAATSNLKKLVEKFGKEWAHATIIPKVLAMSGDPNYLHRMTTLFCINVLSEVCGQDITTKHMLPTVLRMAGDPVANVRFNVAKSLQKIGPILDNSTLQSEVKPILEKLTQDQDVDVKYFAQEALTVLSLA

[9] = molecular target: T9, HeLa cell extract proteins (Homo sapiens, UniProt P36639)
T9 construct: endogenous in cells; host or cells: HeLa cell extract

[10] = molecular target: T10, HeLa cell extract proteins (Homo sapiens, UniProt P52907)
T10 construct: endogenous in cells; host or cells: HeLa cell extract

[11] = molecular target: T11, HeLa cell extract proteins (Homo sapiens, UniProt P60228)
T11 construct: endogenous in cells; host or cells: HeLa cell extract
T11 sequence (P60228 whole entry): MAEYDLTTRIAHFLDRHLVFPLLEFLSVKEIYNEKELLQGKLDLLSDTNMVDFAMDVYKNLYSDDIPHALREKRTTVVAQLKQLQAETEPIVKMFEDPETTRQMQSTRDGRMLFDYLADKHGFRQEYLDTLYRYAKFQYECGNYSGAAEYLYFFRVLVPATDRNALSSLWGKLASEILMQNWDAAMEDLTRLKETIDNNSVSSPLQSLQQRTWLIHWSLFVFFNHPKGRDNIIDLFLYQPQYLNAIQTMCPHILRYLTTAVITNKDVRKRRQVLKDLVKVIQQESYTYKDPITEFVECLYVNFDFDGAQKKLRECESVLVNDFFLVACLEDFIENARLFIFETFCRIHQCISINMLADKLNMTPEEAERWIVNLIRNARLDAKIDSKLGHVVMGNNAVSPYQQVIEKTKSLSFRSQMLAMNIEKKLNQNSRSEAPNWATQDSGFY

[12] = molecular target: T12, HeLa cell extract proteins (Homo sapiens, UniProt P60709)
T12 construct: endogenous in cells; host or cells: HeLa cell extract

[13] = molecular target: T13, HeLa cell extract proteins (Homo sapiens, UniProt Q96CW5)
T13 construct: endogenous in cells; host or cells: HeLa cell extract
T13 sequence (Q96CW5 whole entry): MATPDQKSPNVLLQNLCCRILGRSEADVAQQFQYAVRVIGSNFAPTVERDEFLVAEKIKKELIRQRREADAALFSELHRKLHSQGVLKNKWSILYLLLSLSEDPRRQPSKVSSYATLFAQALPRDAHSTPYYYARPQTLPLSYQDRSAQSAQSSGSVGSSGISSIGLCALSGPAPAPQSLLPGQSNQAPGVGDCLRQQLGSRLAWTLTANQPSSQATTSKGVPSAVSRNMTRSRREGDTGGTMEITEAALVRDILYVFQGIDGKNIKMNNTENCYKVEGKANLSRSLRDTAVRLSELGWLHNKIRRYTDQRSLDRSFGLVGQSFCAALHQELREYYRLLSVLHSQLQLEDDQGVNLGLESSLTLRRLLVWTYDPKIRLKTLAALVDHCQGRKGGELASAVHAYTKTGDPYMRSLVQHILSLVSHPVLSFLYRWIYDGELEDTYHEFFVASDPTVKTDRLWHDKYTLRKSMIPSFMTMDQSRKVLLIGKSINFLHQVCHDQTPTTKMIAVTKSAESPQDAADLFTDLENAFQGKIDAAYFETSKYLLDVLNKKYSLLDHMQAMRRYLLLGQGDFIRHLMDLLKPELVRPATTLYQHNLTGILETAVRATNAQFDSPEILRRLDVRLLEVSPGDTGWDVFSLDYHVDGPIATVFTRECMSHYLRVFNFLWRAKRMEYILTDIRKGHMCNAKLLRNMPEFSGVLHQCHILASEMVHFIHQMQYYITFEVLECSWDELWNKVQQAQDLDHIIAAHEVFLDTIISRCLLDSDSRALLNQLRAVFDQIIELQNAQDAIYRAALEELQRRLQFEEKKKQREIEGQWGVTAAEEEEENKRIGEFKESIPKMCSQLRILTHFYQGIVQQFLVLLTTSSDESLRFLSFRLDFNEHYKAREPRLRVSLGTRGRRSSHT

[14] = molecular target: T14, HeLa cell extract proteins (Homo sapiens, UniProt Q96EY8)
T14 construct: endogenous in cells; host or cells: HeLa cell extract
T14 sequence (Q96EY8 33-250): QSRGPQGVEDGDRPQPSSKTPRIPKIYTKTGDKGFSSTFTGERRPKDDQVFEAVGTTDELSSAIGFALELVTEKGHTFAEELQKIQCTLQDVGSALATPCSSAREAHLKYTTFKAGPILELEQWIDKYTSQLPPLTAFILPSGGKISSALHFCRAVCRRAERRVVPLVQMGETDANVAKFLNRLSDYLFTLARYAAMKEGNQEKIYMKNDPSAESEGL

[15] = molecular target: T15, HeLa cell extract proteins (Homo sapiens, UniProt Q96KA5)
T15 construct: endogenous in cells; host or cells: HeLa cell extract
T15 sequence (Q96KA5 1-538): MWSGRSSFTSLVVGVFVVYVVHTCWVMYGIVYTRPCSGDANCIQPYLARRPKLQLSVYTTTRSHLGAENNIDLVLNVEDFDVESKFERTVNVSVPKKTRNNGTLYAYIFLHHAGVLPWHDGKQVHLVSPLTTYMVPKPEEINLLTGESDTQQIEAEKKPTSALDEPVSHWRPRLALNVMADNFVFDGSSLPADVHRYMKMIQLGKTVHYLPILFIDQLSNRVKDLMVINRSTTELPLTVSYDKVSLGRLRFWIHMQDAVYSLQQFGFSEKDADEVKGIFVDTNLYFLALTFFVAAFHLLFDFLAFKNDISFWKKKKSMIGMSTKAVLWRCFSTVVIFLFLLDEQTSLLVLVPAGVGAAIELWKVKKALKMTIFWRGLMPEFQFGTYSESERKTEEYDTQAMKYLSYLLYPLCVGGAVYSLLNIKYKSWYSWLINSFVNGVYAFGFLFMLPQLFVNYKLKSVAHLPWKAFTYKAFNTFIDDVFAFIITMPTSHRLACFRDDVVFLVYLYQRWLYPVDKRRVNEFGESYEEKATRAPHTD

[16] = molecular target: T16, HeLa cell extract proteins (Homo sapiens, UniProt Q9Y230)
T16 construct: endogenous in cells; host or cells: HeLa cell extract
T16 sequence (Q9Y230 whole entry): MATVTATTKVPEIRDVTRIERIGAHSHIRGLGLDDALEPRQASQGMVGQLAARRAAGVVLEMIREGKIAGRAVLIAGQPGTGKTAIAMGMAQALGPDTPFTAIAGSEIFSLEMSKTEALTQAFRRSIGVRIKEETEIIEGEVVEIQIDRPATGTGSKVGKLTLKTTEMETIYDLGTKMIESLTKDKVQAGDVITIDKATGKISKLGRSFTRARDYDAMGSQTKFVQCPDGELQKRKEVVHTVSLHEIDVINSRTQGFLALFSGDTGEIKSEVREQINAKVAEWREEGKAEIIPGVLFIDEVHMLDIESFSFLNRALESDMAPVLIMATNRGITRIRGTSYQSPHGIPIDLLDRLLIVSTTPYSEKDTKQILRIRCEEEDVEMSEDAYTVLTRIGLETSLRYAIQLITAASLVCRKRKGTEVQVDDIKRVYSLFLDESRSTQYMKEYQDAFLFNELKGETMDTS

T1 sequence (O43242 whole entry): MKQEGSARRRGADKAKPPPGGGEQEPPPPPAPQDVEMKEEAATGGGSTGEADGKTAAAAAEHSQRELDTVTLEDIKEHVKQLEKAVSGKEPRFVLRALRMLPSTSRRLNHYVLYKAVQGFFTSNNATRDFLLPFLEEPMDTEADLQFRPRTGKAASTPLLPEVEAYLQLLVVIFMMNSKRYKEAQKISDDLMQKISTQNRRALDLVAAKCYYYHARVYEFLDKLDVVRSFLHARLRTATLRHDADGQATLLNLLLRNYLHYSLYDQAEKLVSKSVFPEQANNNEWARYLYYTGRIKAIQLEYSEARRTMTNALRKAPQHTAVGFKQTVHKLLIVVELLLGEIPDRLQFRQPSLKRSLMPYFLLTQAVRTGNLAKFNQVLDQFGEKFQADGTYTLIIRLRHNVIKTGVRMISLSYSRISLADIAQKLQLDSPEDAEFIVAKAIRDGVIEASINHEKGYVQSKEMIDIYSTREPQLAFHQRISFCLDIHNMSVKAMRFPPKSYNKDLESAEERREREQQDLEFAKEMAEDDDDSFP

SMILES: Nc1nc2[nH]cc(CCc3ccc(C(=O)N[C@@H](CCC(=O)O)C(=O)O)cc3)c2c(=O)[nH]1 [PTX, pemetrexed]
- fold changes relative to vehicle control [1]: 1.1
- fold changes relative to vehicle control [2]: 0.87
- fold changes relative to vehicle control [3]: 1.21
- fold changes relative to vehicle control [4]: 1.13
- fold changes relative to vehicle control [5]: 1.2
- fold changes relative to vehicle control [6]: 0.99
- fold changes relative to vehicle control [7]: 1.12
- fold changes relative to vehicle control [8]: 0.87
- fold changes relative to vehicle control [9]: 0.36
- fold changes relative to vehicle control [10]: 1.02
- fold changes relative to vehicle control [11]: 1.04
- fold changes relative to vehicle control [12]: 1.18
- fold changes relative to vehicle control [13]: 1.06
- fold changes relative to vehicle control [14]: 0.85
- fold changes relative to vehicle control [15]: 0.91
- fold changes relative to vehicle control [16]: 0.87

SMILES: Nc1nc2cccc(-c3ccccc3)c2n1Cc1ccc(Cl)c(Cl)c1 [compound 3]
- fold changes relative to vehicle control ([1]; protein PSMD3, HeLa): 1.1
- fold changes relative to vehicle control ([2]; HeLa, protein ZRANB2): 0.98
- fold changes relative to vehicle control ([3]; HeLa, protein ALDOA (45 KDA PROTEIN.)): 0.85 fold
- fold changes relative to vehicle control ([4]; HeLa, protein HSP90AA1 (HEAT SHOCK PROTEIN 90KDA ALPHA (CYTOSOLIC), CLASS A MEMBER 1 ISOFORM 1.)): 0.94 fold
- fold changes relative to vehicle control ([5]; HeLa, protein CLTB): 0.94
- fold changes relative to vehicle control ([6]; protein HSPA8, HeLa): 1
- fold changes relative to vehicle control ([7]; protein SNRPB, HeLa): 1.04
- fold changes relative to vehicle control ([8]; HeLa, protein PPP2R1A): 0.88
- fold changes relative to vehicle control ([9]; captured protein NUDT1, HeLa): 0.62
- fold changes relative to vehicle control ([10]; protein CAPZA1, HeLa): 1.15
- fold changes relative to vehicle control ([11]; protein EIF3E, HeLa): 0.99
- fold changes relative to vehicle control ([12]; protein ACTB, HeLa): 1.07
- fold changes relative to vehicle control ([13]; captured protein TUBGCP3, HeLa): 1.02
- fold changes relative to vehicle control ([14]; HeLa, protein MMAB): 0.96
- fold changes relative to vehicle control ([15]; captured protein CLPTM1L, HeLa): 1.14
- fold changes relative to vehicle control ([16]; protein RUVBL2, HeLa): 1.02
